Measurements from US20170015654A1, “PYRIDAZINE COMPOUND” (TAKEDA PHARMACEUTICAL COMPANY LIMITED, priority 2014, published 2017).

Experiments:
human SCD1 = target: T1, human SCD1 (Homo sapiens, UniProt O00767); assay: Measurement of human SCD1 binding activity (inhibition of binding of radiolabeled compound Z); settings: 1 μM compound; human SCD1-expressing membrane fraction; compound Z radioligand; read-out: Rate of inhibition of SCD1 binding (%) at compound concentration of 1 μM
T1 construct: made in house; host or cells: High Five insect cells (baculovirus, pFastBac1/hSCD1); membrane fraction
T1 sequence (O00767 1-359): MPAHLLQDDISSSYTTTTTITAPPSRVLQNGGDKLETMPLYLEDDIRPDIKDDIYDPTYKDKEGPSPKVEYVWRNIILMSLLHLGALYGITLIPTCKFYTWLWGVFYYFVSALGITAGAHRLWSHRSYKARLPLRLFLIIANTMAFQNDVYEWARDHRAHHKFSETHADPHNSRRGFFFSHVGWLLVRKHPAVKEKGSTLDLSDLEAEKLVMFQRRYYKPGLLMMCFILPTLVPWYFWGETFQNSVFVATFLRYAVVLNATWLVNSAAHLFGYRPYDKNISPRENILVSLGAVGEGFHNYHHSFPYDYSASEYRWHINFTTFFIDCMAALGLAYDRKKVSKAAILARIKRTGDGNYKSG
Procedure: Measurement of Human SCD1 Binding Activity Using (5-(6-(1′H-spiro[1-benzofuran-3,3′-pyrrolidin]-1′-yl)pyridazin-3-yl)-1,2,4-oxadiazol-3-yl) [^3H2]methanol
The SCD1 binding activity of the compound of the present invention was measured as the activity of inhibiting the binding of (5-(6-(1′H-spiro[1-benzofuran-3,3′-pyrrolidin]-1′-yl)pyridazin-3-yl)-1,2,4-oxadiazol-3-yl)[^3H2]methanol (radiolabeled form of the compound disclosed as a SCD inhibitor in Example 157 of International Publication No. WO2008/096746; in the present specification, also referred to as compound Z) to SCD1.
Specifically, first, Human liver cDNA library (Takara Bio Inc.) was cloned as a template by PCR using KOD-Plus-(Toyobo Co., Ltd.) DNA polymerase. The primers used were 5′-[…]-3′ and 5′-[…]-3′. The amplification fragment was temporarily transferred to a pCR Blunt II-TOPO vector using Zero Blunt PCR Cloning Kit (Life Technologies, Inc.) to obtain pCR Blunt II-TOPO/hSCD1. A fragment obtained by the cleavage of this pCR Blunt II-TOPO/hSCD1 with BamHI and NotI was transferred to pFastBac1 (Life Technologies, Inc.) to construct a recombinant plasmid pFastBac1/hSCD1 for hSCD1 insect cell expression systems.
Baculovirus was prepared using the pFastBac1/hSCD1 plasmid according to the protocol of Bac-to-Bac Baculovirus Expression System (Life Technologies, Inc.).
The insect cells for use in expression were High Five cells (Life Technologies, Inc.) subcultured in a PSFM-J1 medium (Wako Pure Chemical Industries, Ltd.) containing 5% FBS, 10 U/L heparin (Sigma-Aldrich Corp.) and 50 μg/mL gentamicin.
The High Five cells were inoculated at 0.8×10^6 cells/mL and cultured until the following day. When the cell density reached 2.0×10^6 cells/mL, Ammonium Iron(III) Sulfate 12-Water (Wako Pure Chemical Industries, Ltd.) was added thereto at a final concentration of 10 μM. The cells were further infected with the baculovirus and cultured for 3 days.
After the completion of the culture, the culture solution was centrifuged (4° C., 4,000 rpm, […]) and frozen at −80° C. to obtain hSCD1-expressing insect cells. Next, the frozen hSCD1-expressing insect cells were suspended in buffer A (50 mM Tris-HCl (pH 7.5) containing 250 mM sucrose and cOmplete Protease Inhibitor Cocktail Tablets (F. Hoffmann-La Roche, Ltd.)), and the cells were disrupted (4° C., 20,000 rpm, 20 sec×2) using a POLYTORON homogenizer (Central Scientific Commerce, Inc.).
This cell lysate was centrifuged (4° C., 850×g, […]), and the supernatant was further ultracentrifuged (4° C., 186,000×g, 60 min). The supernatant was discarded, and buffer A was added to the precipitate. The resultant was suspended using POLYTRON (4° C., 10,000 rpm, 10 sec×2) and passed through a 40-μm cell strainer to prepare a human SCD1-expressing membrane fraction (hereinafter, also simply referred to as human SCD1). The protein concentration was measured using BCA Protein Assay Kit (Thermo Fisher Scientific, Inc.) with BSA used as standards.
The obtained primary dilution was diluted 250-fold by the addition of an assay buffer (10 mM Tris-HCl, pH 7.5, 100 mM KCl, 10 mM NaF, 3 mM MgCl2, 0.005% Tween 20, 1 mM GSH) to obtain a secondary dilution. The human SCD1 diluted using an assay buffer was dispensed at 100 μL/well (containing 0.2 μg of the protein) to a polypropylene 96-well plate, and then, the secondary dilution of the compound was added thereto at 50 μL/well. Further, a solution of 12 nM compound Z diluted with an assay buffer was added thereto at 50 μL/well, and the plate was left standing at room temperature for 2 hours. Then, the contents in each well were transferred to each well of UniFilter-96 GF/C PEI coated plate (PerkinElmer, Inc.) wetted with a washing buffer, followed by washing five times with a washing buffer (10 mM Tris-HCl, pH 7.5). After drying of the filter plate, Microscint-O (PerkinElmer, Inc.) was added thereto at 25 μL/well, and the obtained radioactivity was measured using TopCount (PerkinElmer, Inc.). […]

[1] = test system: human large intestine cancer cell line HCT116; assay: Antitumor effect on human large intestine cancer cell line HCT116 cancer-bearing mice; format: in vivo, mouse; settings: 10 mg/kg, 2 doses per day, orally for 14 days; HCT116 cancer-bearing BALB/c nude mice; tumor growth vs control group
Procedure: The compound of the present invention was evaluated for its antitumor effect on human large intestine cancer cell line HCT116 cancer-bearing mice by the following method.
The human large intestine cancer cell line HCT116 (purchased from ATCC (American Type Culture Collection)) was transplanted to each 6-week-old BALB/c female nude mouse (BALB/cA Jcl nu/nu: CLEA Japan Inc.) by the subcutaneous injection of 1.0×10^6 cells. After the transplantation, successfully engrafted tumor was observed, and the tumor size was measured 10 to 14 days after the transplantation. The tumor volume was calculated according to the following expression:
Tumor volume=Major axis×Minor axis×Minor axis×(½)
Individuals in which the volume of the engrafted tumor reached approximately 150 mm^3 were selected and used in the experiment as groups each involving 5 to 8 individuals. Each test compound was suspended in a 0.5% methylcellulose solution and orally administered to each individual for 14 days using the dose and the number of doses shown in the table below. Finally, in order to measure drug effects, the tumor volume was calculated from the tumor sizes at the day before the start of the administration and at the final day of the administration, and tumor growth in the test compound administration group compared with a control administration group given only a 0.5% methylcellulose solution was calculated as T/C according to the following expression:
T/C (%)=(Tumor volume after the completion of the administration of the test compound administration group−Tumor volume at the day before the start of the administration of the test compound administration group)/(Tumor volume after the completion of the administration of the control administration group−Tumor volume at the day before the start of the administration of the control administration group)×100

inhibition at 1 µM (human SCD1): 95%
SMILES: N#CC1(c2ccc(C(F)(F)F)cc2)CCN(c2ccc(-c3nc(CO)no3)nn2)CC1 [Example 38, 1-(6-(3-(Hydroxymethyl)-1,2,4-oxadiazol-5-yl)pyridazin-3-yl)-4-(4-(trifluoromethyl)phenyl)piperidine-4-carbonitrile]
T/C (%) [1]: 85.8%
